From ChEMBL document CHEMBL1909546, “Antiviral activity of novel 2'-fluoro-6'-methylene-carbocyclic adenosine against wild-type and drug-resistant hepatitis B virus mutants” (Bioorg Med Chem Lett, 2011)

Assays:
[1] = test system: Hepatitis B virus; assay: Antiviral activity against lamivudine/entecavir-resistant Hepatitis B virus harboring reverse transcriptase L180M/M204V/S202G infected in human HepG2(2.2.15) cells assessed as inhibition of virus replication treated daily for 9 days by quantitative blot hybridization method; assay type: functional, organism-based; conditions: HepG2 2.2.15, 216 h
[2] = test system: Hepatitis B virus; assay: Fold resistance, ratio of EC90 for lamivudine-resistant Hepatitis B virus harboring reverse transcriptase L180M mutant to EC90 for wild type Hepatitis B virus; assay type: functional
[3] = test system: Hepatitis B virus; assay: Antiviral activity against lamivudine-resistant Hepatitis B virus harboring reverse transcriptase M204I mutant infected in human HepG2(2.2.15) cells assessed as reduction of infectious virus titer treated daily for 9 days by quantitative Southern blot hybridization assay; assay type: functional; conditions: HepG2 2.2.15, 216 h
[4] = test system: Hepatitis B virus; assay: Antiviral activity against adefovir-resistant Hepatitis B virus harboring reverse transcriptase N236T mutant infected in human HepG2(2.2.15) cells assessed as reduction of infectious virus titer treated daily for 9 days by quantitative Southern blot hybridization assay; assay type: functional; conditions: HepG2 2.2.15, 216 h
[5] = test system: Hepatitis B virus; assay: Antiviral activity against wild type Hepatitis B virus infected in human HepG2(2.2.15) cells assessed as reduction of infectious virus titer treated daily for 9 days by quantitative Southern blot hybridization assay; assay type: functional; conditions: HepG2 2.2.15, 216 h
[6] = test system: Hepatitis B virus; assay: Antiviral activity against lamivudine-resistant Hepatitis B virus harboring reverse transcriptase L180M/M204V double mutant infected in human HepG2(2.2.15) cells assessed as reduction of infectious virus titer treated daily for 9 days by quantitative Southern blot hybridization assay; assay type: functional; conditions: HepG2 2.2.15, 216 h
[7] = test system: Hepatitis B virus; assay: Fold resistance, ratio of EC90 for lamivudine-resistant Hepatitis B virus harboring reverse transcriptase M204I mutant to EC90 for wild type Hepatitis B virus; assay type: functional
[8] = test system: Hepatitis B virus; assay: Antiviral activity against lamivudine-resistant Hepatitis B virus harboring reverse transcriptase L180M mutant infected in human HepG2(2.2.15) cells assessed as reduction of infectious virus titer treated daily for 9 days by quantitative Southern blot hybridization assay; assay type: functional; conditions: HepG2 2.2.15, 216 h
[9] = test system: Hepatitis B virus; assay: Antiviral activity against lamivudine-resistant Hepatitis B virus harboring reverse transcriptase M204I mutant infected in human HepG2(2.2.15) cells assessed as inhibition of virus replication treated daily for 9 days by quantitative blot hybridization method; assay type: functional, organism-based; conditions: HepG2 2.2.15, 216 h
[10] = test system: Hepatitis B virus; assay: Antiviral activity against lamivudine-resistant Hepatitis B virus harboring reverse transcriptase L180M/M204V double mutant infected in human HepG2(2.2.15) cells assessed as inhibition of virus replication treated daily for 9 days by quantitative blot hybridization method; assay type: functional, organism-based; conditions: HepG2 2.2.15, 216 h
[11] = test system: Hepatitis B virus; assay: Fold resistance, ratio of EC90 for lamivudine-resistant Hepatitis B virus harboring reverse transcriptase M204V mutant to EC90 for wild type Hepatitis B virus; assay type: functional
[12] = test system: Hepatitis B virus; assay: Antiviral activity against lamivudine-resistant Hepatitis B virus harboring reverse transcriptase L180M mutant infected in human HepG2(2.2.15) cells assessed as inhibition of virus replication treated daily for 9 days by quantitative blot hybridization method; assay type: functional, organism-based; conditions: HepG2 2.2.15, 216 h
[13] = test system: Hepatitis B virus; assay: Antiviral activity against lamivudine-resistant Hepatitis B virus harboring reverse transcriptase M204V mutant infected in human HepG2(2.2.15) cells assessed as inhibition of virus replication treated daily for 9 days by quantitative blot hybridization method; assay type: functional, organism-based; conditions: HepG2 2.2.15, 216 h
[14] = test system: Hepatitis B virus; assay: Fold resistance, ratio of EC90 for lamivudine-resistant Hepatitis B virus harboring reverse transcriptase L180M/M204V double mutant to EC90 for wild type Hepatitis B virus; assay type: functional
[15] = test system: Hepatitis B virus; assay: Fold resistance, ratio of EC90 for adefovir-resistant Hepatitis B virus harboring reverse transcriptase N236T mutant to EC90 for wild type Hepatitis B virus; assay type: functional
[16] = test system: Hepatitis B virus; assay: Antiviral activity against lamivudine-resistant Hepatitis B virus harboring reverse transcriptase M204V mutant infected in human HepG2(2.2.15) cells assessed as reduction of infectious virus titer treated daily for 9 days by quantitative Southern blot hybridization assay; assay type: functional; conditions: HepG2 2.2.15, 216 h
[17] = test system: Hepatitis B virus; assay: Ratio of adefovir EC90 to compound EC90 for wild type Hepatitis B virus; assay type: functional
[18] = test system: Hepatitis B virus; assay: Ratio of Lamivudine EC90 to compound EC90 for Lamivudine-resistant Hepatitis B virus harboring reverse transcriptase L180M mutant; assay type: functional
[19] = test system: Hepatitis B virus; assay: Antiviral activity against adefovir-resistant Hepatitis B virus harboring reverse transcriptase N236T mutant infected in human HepG2(2.2.15) cells assessed as inhibition of virus replication treated daily for 9 days by quantitative blot hybridization method; assay type: functional, organism-based; conditions: HepG2 2.2.15, 216 h
[20] = test system: Hepatitis B virus; assay: Ratio of adefovir EC50 to compound EC50 for adefovir-resistant Hepatitis B virus harboring reverse transcriptase N236T mutant; assay type: functional
[21] = Stability of the compound assessed as resistance to calf thymus adenosine deaminase; assay type: ADME; conditions: cattle
[22] = Cytotoxicity against human HepG2(2.2.15) cells after 24 hrs by neutral red dye uptake assay; assay type: cell-based
[23] = test system: Hepatitis B virus; assay: Ratio of adefovir EC90 to compound EC90 for adefovir-resistant Hepatitis B virus harboring reverse transcriptase N236T mutant; assay type: functional
[24] = test system: Hepatitis B virus; assay: Antiviral activity against wild type Hepatitis B virus infected in human HepG2(2.2.15) cells assessed as inhibition of virus replication treated daily for 9 days by quantitative blot hybridization method; assay type: functional, organism-based; conditions: HepG2 2.2.15, 216 h

| SMILES | EC50 [1] | Ratio [2] | EC90 [3] | EC90 [4] | EC90 [5] | EC90 [6] | Ratio [7] | EC90 [8] | EC50 [9] | EC50 [10] | Ratio [11] | EC50 [12] | EC50 [13] | Ratio [14] | Ratio [15] | EC90 [16] | EC50 [19] | CC50 at 24 h [22] | EC50 [24] | other results |
| --- | --- | --- | --- | --- | --- | --- | --- | --- | --- | --- | --- | --- | --- | --- | --- | --- | --- | --- | --- | --- |
| Nc1ccn([C@@H]2CS[C@H](CO)O2)c(=O)n1 [LAMIVUDINE] | > 500 µM | 36.7 | > 100 µM | 0.9 µM | 0.6 µM | > 100 µM | >166 | 22 µM | > 100 µM | > 100 µM | >166 | 1.5 µM | > 100 µM | >166 | 1.5 | > 100 µM |  |  |  |  |
| C=C1[C@@H](n2cnc3c(N)ncnc32)[C@@H](F)[C@H](O)[C@H]1CO | 0.67 µM | 1.1 | 5 µM | 4.6 µM | 4.5 µM | 5.5 µM | 1.1 | 5.1 µM | 1 µM | 2.2 µM | 1 | 2.1 µM | 1.8 µM | 1.2 | 1 | 4.7 µM | 1.7 µM | > 100 µM | 1.5 µM | Ratio [17]: 1.5; Ratio [18]: 4.3; Ratio EC50 [20]: 4.5; Stability [21]: Stable; Ratio [23]: 7.8 |
| Nc1ncnc2c1ncn2CCOCP(=O)(O)O [ADEFOVIR] |  | 1.1 | 8 µM | 36 µM | 7.1 µM | 8.5 µM | 1.1 | 7.7 µM | 1.9 µM | 2.1 µM | 1 | 5.5 µM | 1.6 µM | 1.2 | 5.1 | 7 µM | 7.8 µM |  | 1.3 µM |  |
| C=C1[C@H](CO)[C@@H](O)C[C@@H]1n1cnc2c(=O)[nH]c(N)nc21 [ENTECAVIR] | 1.2 µM |  |  |  | 0.033 µM |  |  |  |  |  |  |  |  |  |  |  |  | 28 µM | 0.008 µM |  |
